# Values quoted from earlier work, collected in patent US12358215B2, “Binders and methods of binder jetting including branched polymer binders and articles made therefrom” (VIRGINIA TECH INTELLECTUAL PROPERTIES, INC., priority 2019, dated 2025).
compound,measurement,value
"CC(=O)Nc1ccc(O)cc1 [Acetaminophen, acetaminophen]",solubility in cold water,only slightly soluble
